Experimental data taken from patent US20060134801A1, “Methods and compositions involving MDA-7” (Board of Regents, The University of Texas System, priority 2003, published 2006).

How the values were obtained:
A549 cells = assay: Radiation clonogenic survival assay; type: cell-based, human; settings: A549 and H1299
Method: In vitro transfection studies for all cell lines were performed by plating 2×10^5 cells in T25 flasks. Forty-eight hours after plating, cells were incubated for 1 hour with purified vector in 1 ml of medium without serum. After 1 hour, fresh medium supplemented with 10% FBS was added to the flask. Serum-free medium was used for mock transfection.
The effectiveness of treatments was assessed by clonogenic assays. Briefly, monolayers of A549, H1299, CCD-16, and MRC-9 cells were treated in T25 flasks as described above, and after various doses of irradiation the cells were trypsinized and counted. Known numbers of cells were then replated in 100 mm culture dishes and returned to the incubator to allow macroscopic colony development.

HUVEC = assay: Endothelial cell differentiation (tube formation) assay on Matrigel; type: cell-based, human; settings: for concentration required to significantly inhibit HUVEC tube formation: equimolar comparison; for tube formation in the presence of IL-22R1 antibody: high concentrations, vs PBS
Method: Endothelial cell differentiation (tube formation) assays were done using the in vitro angiogenesis assay kit (Chemicon, Temecula, Calif.). Briefly, HUVEC and HMVEC were grown to 80% confluency, collected, resuspended in growth medium, and plated at a concentration of 2−10^4 cells/well in a 96-well plate coated with Matrigel (Chemicon, Temecula, Calif.). Cells were treated with sMDA-7 protein (1, 5, 10, and 50 ng/ml), or a preparation immunodepleted of sMDA protein for 24 h at 37° C. Cells treated with PBS served as negative controls in these experiments. The ability of sMDA-7 to inhibit tube formation was determined and quantitated by counting the number of tubes under bright-field microscopy.
For experiments involving comparative studies, cells were treated with equimolar concentrations of sMDA-7 (5, 10, and 300 ng/ml), recombinant human endostatin (5.2, 10.4, and 315 ng/ml; Calbiochem, La Jolla, Calif.), recombinant IFN-γ (4.5, 9, and 268 ng/ml; R&D systems, Minneapolis, Minn.) or recombinant IP-10 (2.4, 4.5, and 134 ng/ml; R&D systems, Minneapolis, Minn.) and analyzed for tube formation assay as described above. All samples were tested in duplicate. Experiments were repeated at least 5-6 times.
For receptor blocking studies, HUVEC grown in six-well plates were pretreated with IL-22R1 blocking antibody (1 ng/ml and 5 ng/ml). Following overnight incubation, cells were harvested, washed, and plated in Matrigel coated 96-well plates. Fresh IL-22R1 blocking antibody and sMDA-7 was added to the wells in a 1:1 ratio (1 ng/ml of IL-22R1 antibody:1 ng/ml of sMDA-7) or 1:5 ratio (1 ng/ml of IL-22R1 antibody:5 ng/ml of sMDA-7) and incubated at 37° C. After overnight incubation, the plates were examined for tube formation. All other experimental procedures were the same as described above. […] The relative amount of IL-22R1 used for experiments involving endostatin was 315 ng/ml (1:1 ratio) and 134 ng/ml for experiments involving IP-10 (1:1 ratio). All other experimental procedures were the same as described previously. For blocking studies using anti-IP-10 or anti-IFN-γ neutralizing antibodies (R & D Systems), experiments were conducted as described above for receptor studies except that HUVEC were treated with the appropriate neutralizing antibody (1 μg and 5 μg/ml) prior to treatment with sMDA-7 (300 ng/ml).

MDA-7 expression in PBMC = MDA-7 expression in PBMC (real time RT-PCR, intracellular FACS); type: cell-based, human; settings: 100 U/ml; 6 hr; resting PBMC
Method: Cells were isolated at the designated times and protein levels measured and RNA isolated. Real time RT-PCR was performed using TaqMan OneStep procedure according to the manufacturers protocol (Applied Biosystems, Foster City Calif.). Gene specific primer/probes for MDA-7 and HPRT were purchased from Applied Biosystems. The reactions were carried out according to manufacturer's protocol using an ABI Prism 7900 HT sequence detection system and the analysis was conducted using Sequence Detection Software version 2.9. MDA-7 protein was detected by intracellular FACs analysis. Cells were treated with Brefeldin A at 10 μg/ml 4 hr prior to harvest to prohibit secretion of the cytokine. Where applicable cells were first surface stained using directly conjugated antibodies and then, to detect intracellular proteins, cells were fixed by treatment with 4% paraformaldehyde and then permeabilized with detergent, n-octyl glucopyranoside at 7 mg/ml. As the control for permeabilization, cells were also stained with a monoclonal antibody directed against the intracellular protein vimentin. Standard protocols were followed for immunofluorescence staining. Immunofluorescence was analyzed on a FACSCalibur with Cell Quest software (BD Immunosciences).
To determine what cytokines may be driving this expression, PBMC were stimulated with IL-2, a major cytokine produced during PHA activation. […]

HUVECs = assay: Clonogenic survival of endothelial cells after irradiation; type: cell-based, human; settings: MDA-7 protein 10 ng/ml; angiostatin, endostatin 100 ng/ml; 12 h before irradiation
Method: Twelve hours after seeding HUVECs in 4-well plates (Nunc, Roskilde, Denmark), medium was replaced with serum/growth factor-free medium. After serum/growth factor starvation for 12 hours, cells were treated with complete medium containing either MDA-7 protein (10 ng/ml) (removed from cultures of 293 cells), angiostatin (100 ng/ml), or endostatin (100 ng/ml). Twelve hours later, cells were irradiated with ^137CS unit (3.4 Gy/min) at room temperature, trypsinized and counted. Known numbers of cells were replated in 60 mm culture dishes and incubated to allow macroscopic colony development. Colonies were counted after 14 days, and the percent plating efficiency and surviving fractions following given treatments were calculated based on the survival of non-irradiated cells.

IL-22R1 on HUVEC = biological target: T1, IL-22R1 on HUVEC (human, UniProt Q8N6P7 16-574); assay: cell-based or functional assay
T1 sequence (looked up): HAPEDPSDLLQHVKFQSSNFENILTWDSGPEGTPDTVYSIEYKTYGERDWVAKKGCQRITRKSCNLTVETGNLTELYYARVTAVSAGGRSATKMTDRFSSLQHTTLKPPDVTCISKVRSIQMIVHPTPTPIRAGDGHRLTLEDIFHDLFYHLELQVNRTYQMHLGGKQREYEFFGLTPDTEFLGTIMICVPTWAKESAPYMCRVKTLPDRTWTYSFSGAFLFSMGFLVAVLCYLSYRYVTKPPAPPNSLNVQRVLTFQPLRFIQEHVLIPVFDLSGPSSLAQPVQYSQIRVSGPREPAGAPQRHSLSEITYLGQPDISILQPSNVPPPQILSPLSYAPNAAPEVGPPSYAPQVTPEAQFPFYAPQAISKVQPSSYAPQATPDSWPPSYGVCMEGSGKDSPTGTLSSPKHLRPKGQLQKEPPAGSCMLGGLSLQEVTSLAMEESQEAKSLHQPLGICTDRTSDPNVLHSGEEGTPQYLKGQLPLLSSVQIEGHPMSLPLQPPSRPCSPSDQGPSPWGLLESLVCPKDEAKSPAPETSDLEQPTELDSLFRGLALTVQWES

Question: COC(=O)Nc1nc2ccc(C(=O)c3cccs3)cc2[nH]1 [Nocodazole] was tested. Which “radiosensitivity after G2/M arrest” value (A549 cells; 200 ng/ml) did it give?
Answer: does not enhance the radiosensitivity

Question: Which Ad-mda7 radiosensitization (A549 cells; 10 μM) does the source give for COc1cc(/C=C/C(=O)CC(=O)/C=C/c2ccc(O)c(OC)c2)ccc1O [curcumin, Curcumin] here?
Answer: abrogated

Question: With IFN-γ: recombinant IFN-γ (R&D systems) as the molecule, how does the “concentration required to significantly inhibit HUVEC tube formation” value (HUVEC) read?
Answer: 268 ng/mL

Question: Which “expression of MDA-7 mRNA and protein” value (MDA-7 expression in PBMC) does the source give for IL-15: cytokine here?
Answer: stimulated

Question: Which “concentration required to significantly inhibit HUVEC tube formation” value (HUVEC) does the source give for IP-10: recombinant IP-10 (R&D systems) here?
Answer: 134 ng/mL

Question: What about the “tube formation in the presence of IL-22R1 antibody” value (HUVEC) of the same molecule?
Answer: significantly inhibited

Question: angiostatin was tested. Which “radiosensitization of HUVECs” value (HUVECs) did it give?
Answer: produced radiosensitizing effects

Question: Which results are given for endostatin?
Answer: inhibition of tube formation over control (HUVEC; 315 ng/ml): 40-50%; concentration required to significantly inhibit HUVEC tube formation (HUVEC): 300 ng/mL; tube formation in the presence of IL-22R1 antibody (HUVEC): significantly inhibited; radiosensitization of HUVECs (HUVECs): produced radiosensitizing effects

B1: IL-7: cytokine (protein, UniProt P13232 26-177, looked up)
Interleukin-7: DCDIEGKDGKQYESVLMVSIDQLLDSMKEIGSNCLNNEFNFFKRHICDANKEGMFLFRAARKLRQFLKMNSTGDFDLHLLKVSEGTTILLNCTGQVKGRKPAALGEAQPTKSLEENKSLKEQKKLNDLCFLKRLLQEIKTCWNKILMGTKEH
Question: With B1 as the molecule, how does the “expression of MDA-7 mRNA and protein” value (MDA-7 expression in PBMC) read?
Answer: stimulated

B2: secreted MDA-7 protein (soluble, glycosylated, produced by stably transfected 293 cells) (ligand)
chain: AQGQEFHFGPCQVKGVVPQKLWEAFWAVKDTMQAQDNITSARLLQQEVLQNVSDAESCYLVHTLLEFYLKTVFKNYHNRTVEVRTLKSFSTLANNFVLIVSQLQPSQENEMFSIRDSAHRRFLLFRRAFKQLDVEAALTKALGEVDILLTWMQKFYKL
modifications: glycosylated (sites not given)
Question: Which results are given for B2?
Answer: HUVEC tube formation with sMDA-7 (5 ng/ml), restoration by 1 ng/ml IL-22R1 blocking antibody (1:5 ratio) (IL-22R1 on HUVEC): < 60%; HUVEC tube formation with sMDA-7 (5 ng/ml), restoration by 5 ng/ml IL-22R1 blocking antibody (1:1 ratio) (IL-22R1 on HUVEC): > 90%
